Laboratory results reported in PubChem BioAssay AID248 (DTP/NCI, 2004).
Where “and” joins values, the source holds several entries; their conditions need not be identical. Equal values may be shown once. Inconclusive results and toxic doses are left out. Rule as the data show it: active = T/C of 150% or more; inactive = T/C below 125%.

Test system: L1210 leukemia ip in BDF1 mice, survival T/C
Experiment: NCI In Vivo Anticancer Drug Screen. Data for tumor model L1210 Leukemia (intraperitoneal) in B6D2F1 (BDF1) mice
Conditions: endpoint: mean survival time, higher = longer survival
Procedure, shortened: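 Tumor cells were implanted, animals were treated, and survival was followed. The result divides the treated measurement by the vehicle-control measurement.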

[1] = dose: 100.0 mg/kg/injection, schedule: Q01DX001 (ip), vehicle: other
[2] = dose: 200.0 mg/kg/injection, schedule: Q01DX001 (ip), vehicle: other
[3] = dose: 400.0 mg/kg/injection, schedule: Q01DX001 (ip), vehicle: other
[4] = dose: 100.0 mg/kg/injection, schedule: Q01DX009 (ip), vehicle: Klucel (hydroxypropylcellulose) (HPC)
[5] = dose: 100.0 mg/kg/injection, schedule: Q04DX003 (ip), vehicle: Klucel (hydroxypropylcellulose) (HPC)
[6] = dose: 200.0 mg/kg/injection, schedule: Q01DX009 (ip), vehicle: Klucel (hydroxypropylcellulose) (HPC)
[7] = dose: 200.0 mg/kg/injection, schedule: Q04DX003 (ip), vehicle: Klucel (hydroxypropylcellulose) (HPC)
[8] = dose: 400.0 mg/kg/injection, schedule: Q01DX009 (ip), vehicle: Klucel (hydroxypropylcellulose) (HPC)
[9] = dose: 400.0 mg/kg/injection, schedule: Q04DX003 (ip), vehicle: Klucel (hydroxypropylcellulose) (HPC)
[10] = dose: 100.0 mg/kg/injection, schedule: Q04DX002 (ip), vehicle: saline with Tween-80
[11] = dose: 100.0 mg/kg/injection, schedule: Q01DX009 (ip), vehicle: saline with Tween-80
[12] = dose: 100.0 mg/kg/injection, schedule: Q04DX003 (ip), vehicle: saline with Tween-80
[13] = dose: 200.0 mg/kg/injection, schedule: Q01DX009 (ip), vehicle: saline with Tween-80
[14] = dose: 200.0 mg/kg/injection, schedule: Q04DX003 (ip), vehicle: saline with Tween-80
[15] = dose: 400.0 mg/kg/injection, schedule: Q01DX009 (ip), vehicle: saline with Tween-80
[16] = dose: 200.0 mg/kg/injection, schedule: Q04DX002 (ip), vehicle: saline with Tween-80
[17] = dose: 400.0 mg/kg/injection, schedule: Q04DX002 (ip), vehicle: saline with Tween-80
[18] = dose: 50.0 mg/kg/injection, schedule: Q01DX001 (ip), vehicle: saline
[19] = dose: 100.0 mg/kg/injection, schedule: Q01DX001 (ip), vehicle: saline
[20] = dose: 200.0 mg/kg/injection, schedule: Q01DX001 (ip), vehicle: saline
[21] = dose: 400.0 mg/kg/injection, schedule: Q01DX001 (ip), vehicle: saline
[22] = dose: 25.0 mg/kg/injection, schedule: Q01DX009 (ip), vehicle: saline with Tween-80
[23] = dose: 50.0 mg/kg/injection, schedule: Q01DX009 (ip), vehicle: saline with Tween-80
[24] = dose: 100.0 mg/kg/injection, schedule: Q01DX001 (ip), vehicle: Klucel (hydroxypropylcellulose) (HPC)
[25] = dose: 200.0 mg/kg/injection, schedule: Q01DX001 (ip), vehicle: Klucel (hydroxypropylcellulose) (HPC)
[26] = dose: 400.0 mg/kg/injection, schedule: Q01DX001 (ip), vehicle: Klucel (hydroxypropylcellulose) (HPC)

Measured: T/C

O=C(O)C(CS)NS(=O)(=O)Cc1ccccc1 (stereo unspecified)
inactive: [1] 104 % of control | [2] 94 % of control | [3] 100 % of control

O=[N+]([O-])c1cccc(N=Cc2ccc3c(c2)OCO3)c1
inactive: dose: 100.0 mg/kg/injection, schedule: Q01DX009 (ip), vehicle: saline 96 % of control | dose: 200.0 mg/kg/injection, schedule: Q01DX009 (ip), vehicle: saline 93 % of control | dose: 400.0 mg/kg/injection, schedule: Q01DX009 (ip), vehicle: saline 100 % of control

O=[N+]([O-])c1ccc2c(c1)Cc1cc(Br)ccc1-2
inactive: [4] 106 % of control | [5] 92 % of control | [6] 95 % of control | [7] 91 % of control | [8] 98 % of control | [9] 102 % of control

CCCCCCCC(CCCCCC)(OO)C(=O)OC (stereo unspecified)
inactive: dose: 25.0 mg/kg/injection, schedule: Q04DX002 (ip), vehicle: saline with Tween-80 100 % of control | dose: 50.0 mg/kg/injection, schedule: Q04DX002 (ip), vehicle: saline with Tween-80 95 % of control | [10] 91 % of control

O=[N+]([O-])c1cccc(/C=C/C=C/c2ccc(S(=O)(=O)F)cc2Cl)c1
inactive: [11] 100 % of control | [12] 94 % of control | [13] 93 % of control | [14] 95 % of control | [15] 91 % of control | dose: 400.0 mg/kg/injection, schedule: Q04DX003 (ip), vehicle: saline with Tween-80 90 % of control

C[n+]1ccn(CCCl)c1
inactive: dose: 25.0 mg/kg/injection, schedule: Q01DX Z (ip), vehicle: saline 96 % of control | dose: 50.0 mg/kg/injection, schedule: Q01DX Z (ip), vehicle: saline 93 % of control | dose: 100.0 mg/kg/injection, schedule: Q01DX Z (ip), vehicle: saline 96 % of control

CC1Oc2ccccc2NC1=O (stereo unspecified)
inactive: [10] 102 % of control | [16] 106 % of control | [17] 98 % of control

COc1ccc(/C=N\NC(=O)CCCC(=O)N/N=C/c2ccc(OC)c(O)c2)cc1O
inactive: [18] 100 % of control | [19] 100 % of control | [20] 100 % of control | [21] 103 % of control

CC(=O)c1ccc(OC(=O)Nc2ccc(Cl)cc2)cc1
inactive: [22] 106 % of control and 108 % of control | [23] 106 % of control and 112 % of control | [10] 100 % of control and 103 % of control | [12] 103 % of control | [16] 95 % of control and 92 % of control | [14] 108 % of control | [17] 97 % of control and 100 % of control

CCC(Cl)COP(=O)(OCC(Cl)CC)O/C(C)=C(\C)OP(=S)(OCC(Cl)CC)OCC(Cl)CC (stereo unspecified)
inactive: dose: 100.0 mg/kg/injection, schedule: Q04DX002 (sc), vehicle: olive oil, sesame oil, peanut oil 108 % of control | dose: 200.0 mg/kg/injection, schedule: Q04DX002 (sc), vehicle: olive oil, sesame oil, peanut oil 102 % of control | dose: 400.0 mg/kg/injection, schedule: Q04DX002 (sc), vehicle: olive oil, sesame oil, peanut oil 102 % of control

Brc1ccc(/C=C2\C=Cc3ccccc32)cc1
inactive: dose: 100.0 mg/kg/injection, schedule: Q01DX001 (ip), vehicle: carboxymethylcellulose (CMC) 98 % of control | dose: 200.0 mg/kg/injection, schedule: Q01DX001 (ip), vehicle: carboxymethylcellulose (CMC) 93 % of control | dose: 400.0 mg/kg/injection, schedule: Q01DX001 (ip), vehicle: carboxymethylcellulose (CMC) 93 % of control

CCCCOB(OCCCC)OCCCC
inactive: [18] 104 % of control | [19] 95 % of control | [20] 90 % of control | [21] 106 % of control

OCc1ccc(Cl)cc1
inactive: [11] 102 % of control | [13] 98 % of control | [15] 96 % of control

O=c1[nH]ccc2n[nH]nc12
inactive: [1] 104 % of control | dose: 100.0 mg/kg/injection, schedule: Q04DX003 (ip), vehicle: other 96 % of control | [2] 101 % of control | dose: 200.0 mg/kg/injection, schedule: Q04DX003 (ip), vehicle: other 105 % of control | [3] 104 % of control | dose: 400.0 mg/kg/injection, schedule: Q04DX003 (ip), vehicle: other 102 % of control

O=S(=O)(F)c1cccc(C[P+](c2ccccc2)(c2ccccc2)c2ccccc2)c1
inactive: [22] 95 % of control | [23] 101 % of control | dose: 100.0 mg/kg/injection, schedule: Q04DX003 (ip), vehicle: acetone 94 % of control

COC(=O)C1C(=O)C(C(=O)OC)C2C(C(=O)OC)C(=O)C(C(=O)OC)C12 (stereo unspecified)
inactive: [24] 104 % of control | [4] 93 % of control | [5] 97 % of control | [25] 101 % of control | [6] 95 % of control | [7] 96 % of control | [26] 103 % of control | [8] 98 % of control | [9] 102 % of control

CC(C)(C)C=O
inactive: dose: 100.0 mg/kg/injection, schedule: Q04DX003 (ip), vehicle: saline 102 % of control | dose: 200.0 mg/kg/injection, schedule: Q04DX003 (ip), vehicle: saline 96 % of control | dose: 400.0 mg/kg/injection, schedule: Q04DX003 (ip), vehicle: saline 100 % of control

CC1(C)C2CCC([CH2][Hg][Cl])C1C2 (stereo unspecified)
inactive: dose: 6.25 mg/kg/injection, schedule: Q01DX009 (ip), vehicle: saline 93 % of control | dose: 6.25 mg/kg/injection, schedule: Q04DX003 (ip), vehicle: other 103 % of control | dose: 12.5 mg/kg/injection, schedule: Q01DX009 (ip), vehicle: saline 91 % of control | dose: 12.5 mg/kg/injection, schedule: Q04DX003 (ip), vehicle: other 103 % of control | dose: 20.0 mg/kg/injection, schedule: Q01DX001 (ip), vehicle: Klucel (hydroxypropylcellulose) (HPC) 102 % of control | dose: 25.0 mg/kg/injection, schedule: Q01DX009 (ip), vehicle: saline 94 % of control | dose: 25.0 mg/kg/injection, schedule: Q04DX003 (ip), vehicle: other 106 % of control

CCCC(C)OP(=O)(OCC)OC(C)CC (stereo unspecified)
inactive: [4] 100 % of control | [6] 89 % of control

CC(=O)NC(CCC(N)=O)C(=O)O (stereo unspecified)
inactive: dose: 100.0 mg/kg/injection, schedule: Q04DX002 (ip), vehicle: saline 99 % of control | dose: 200.0 mg/kg/injection, schedule: Q04DX002 (ip), vehicle: saline 89 % of control | dose: 400.0 mg/kg/injection, schedule: Q04DX002 (ip), vehicle: saline 96 % of control

O=S(=O)(Cl)c1ccc(Oc2ccc(S(=O)(=O)Cl)cc2)cc1
inactive: [18] 105 % of control | [19] 94 % of control | [20] 105 % of control | [21] 90 % of control

CCOc1ccc(-n2c(O)c(N=Nc3ccccc3C)c(=O)n(-c3ccc(OC)cc3)c2=S)cc1
inactive: [24] 94 % of control | [25] 95 % of control | [26] 89 % of control

O=S(=O)(ON/N=C/c1cc2ccccc2c2ccccc12)c1ccccc1
inactive: dose: 75.0 mg/kg/injection, schedule: Q01DX009 (ip), vehicle: Klucel (hydroxypropylcellulose) (HPC) 96 % of control | dose: 150.0 mg/kg/injection, schedule: Q01DX009 (ip), vehicle: Klucel (hydroxypropylcellulose) (HPC) 96 % of control | dose: 300.0 mg/kg/injection, schedule: Q01DX009 (ip), vehicle: Klucel (hydroxypropylcellulose) (HPC) 98 % of control

C/C(=N\Nc1nc2ccccc2s1)c1ccc2c(c1)Sc1ccccc1O2
inactive: dose: 75.0 mg/kg/injection, schedule: Q04DX003 (ip), vehicle: saline 87 % of control | dose: 150.0 mg/kg/injection, schedule: Q04DX003 (ip), vehicle: saline 90 % of control

O=C(O)CNC(=O)c1ccc(NC(=O)CBr)cc1
inactive: [18] 104 % of control | [19] 104 % of control | [20] 109 % of control

NNc1ccccc1
inactive: [19] 105 % of control | [20] 111 % of control
